Consider four molecules from US11034650B2, “Compounds useful for treating a Mannheimia haemolytica or Histophilus somni infection” (Intervet Inc., priority 2016, dated 2021).

Converted amounts (≈) assume the structure as drawn.

One assay deals with Pasteurella multocida PM 6391 (ATCC 43137, reference strain). The experiment in a line: MIC, broth-microdilution (CLSI VET01-A4), strain PM 6391. In kind it is cell-based. Conditions: Pasteurella multocida strain PM 6391, broth-microdilution; unit assumed. The method, boiled down:
(§1)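 Broth microdilution per CLSI VET01-A4, using trays with a doubling dilution series of compound; results interpreted per CLSI VET01-S3. MIC taken as lowest concentration with no turbidity visible to the unaided eye.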
On the technique in general: In broth dilution the organism is exposed to a series of concentrations in liquid medium.
`CON=C(C)[C@H](NC(=O)c1ccc(C#Cc2ccc(CNCC3CCCO3)cc2)cc1)C(=O)NO` (stereo partly shown) [Compound 394] had an MIC PM 6391 of 0.2 µg/mL (≈ 0.418 µM).

With `C=CCNCc1ccc(C#Cc2ccc(C(=O)N[C@H](C(=O)NO)C(C)(C)SC)cc2)cc1` [C.236], the MIC PM 6391 worked out at 0.4 µg/mL (≈ 0.886 µM).

Turning to `COCCN(C)Cc1ccc(C#Cc2ccc(C(=O)N[C@@H](CO)C(=O)NO)cc2)cc1` [Compound 154], the MIC PM 6391 came to 1.6 µg/mL (≈ 3.76 µM).

On to `CC(C)(C(NC(=O)c1ccc(C#Cc2ccc(CNCc3ccc(F)cc3)cc2)cc1)C(=O)NO)[N+](=O)[O-]` (stereo not shown) [Compound 284], for which the MIC PM 6391 came out at 0.4 µg/mL (≈ 0.771 µM).

The next assay deals with Mannheimia haemolytica MH 10720 (154, BRD field isolate). As to the kind of experiment: MIC, broth-microdilution (CLSI VET01-A4), strain MH 10720. The assay is classed as cell-based. Conditions: Mannheimia haemolytica strain MH 10720, broth-microdilution; unit assumed. The method, boiled down: as §1
For the molecule `CON=C(C)[C@H](NC(=O)c1ccc(C#Cc2ccc(CNCC3CCCO3)cc2)cc1)C(=O)NO` (stereo partly shown) [Compound 394], the MIC MH 10720 was determined as 1.6 µg/mL (≈ 3.34 µM).

Regarding `C=CCNCc1ccc(C#Cc2ccc(C(=O)N[C@H](C(=O)NO)C(C)(C)SC)cc2)cc1` [C.236], the MIC MH 10720 was at most 0.1 µg/mL.

`COCCN(C)Cc1ccc(C#Cc2ccc(C(=O)N[C@@H](CO)C(=O)NO)cc2)cc1` [Compound 154] showed an MIC MH 10720 of 1.6 µg/mL (≈ 3.76 µM).

As for `CC(C)(C(NC(=O)c1ccc(C#Cc2ccc(CNCc3ccc(F)cc3)cc2)cc1)C(=O)NO)[N+](=O)[O-]` (stereo not shown) [Compound 284], the MIC MH 10720 is at most 0.1 µg/mL.

In a further assay the test system is Mannheimia haemolytica MH 6357 (M7/2, reference strain, cattle infection strain). As to the kind of experiment: MIC, broth-microdilution (CLSI VET01-A4), strain MH 6357. The assay is classed as cell-based. Conditions: Mannheimia haemolytica strain MH 6357, broth-microdilution; unit assumed. The method, boiled down: as §1
`CON=C(C)[C@H](NC(=O)c1ccc(C#Cc2ccc(CNCC3CCCO3)cc2)cc1)C(=O)NO` (stereo partly shown) [Compound 394] yielded an MIC MH 6357 of 3.1 µg/mL (≈ 6.48 µM).

The molecule `C=CCNCc1ccc(C#Cc2ccc(C(=O)N[C@H](C(=O)NO)C(C)(C)SC)cc2)cc1` [C.236] showed an MIC MH 6357 of 0.8 µg/mL (≈ 1.77 µM).

The molecule `COCCN(C)Cc1ccc(C#Cc2ccc(C(=O)N[C@@H](CO)C(=O)NO)cc2)cc1` [Compound 154] came in with an MIC MH 6357 of 3.1 µg/mL (≈ 7.29 µM).

Take `CC(C)(C(NC(=O)c1ccc(C#Cc2ccc(CNCc3ccc(F)cc3)cc2)cc1)C(=O)NO)[N+](=O)[O-]` (stereo not shown) [Compound 284]: the MIC MH 6357 was 0.4 µg/mL (≈ 0.771 µM).

Another assay concerns Pasteurella multocida PM 12080 (IV102277-0093, BRD field isolate). As to the kind of experiment: MIC, broth-microdilution (CLSI VET01-A4), strain PM 12080. As to conditions: Pasteurella multocida strain PM 12080, broth-microdilution; unit assumed. In kind it is cell-based. The method, boiled down:
as §1
Regarding `CON=C(C)[C@H](NC(=O)c1ccc(C#Cc2ccc(CNCC3CCCO3)cc2)cc1)C(=O)NO` (stereo partly shown) [Compound 394], the MIC PM 12080 turned out to be 0.4 µg/mL (≈ 0.836 µM).

Regarding `C=CCNCc1ccc(C#Cc2ccc(C(=O)N[C@H](C(=O)NO)C(C)(C)SC)cc2)cc1` [C.236], the MIC PM 12080 was 0.4 µg/mL (≈ 0.886 µM).

`COCCN(C)Cc1ccc(C#Cc2ccc(C(=O)N[C@@H](CO)C(=O)NO)cc2)cc1` [Compound 154] returned an MIC PM 12080 of 0.8 µg/mL (≈ 1.88 µM).

`CC(C)(C(NC(=O)c1ccc(C#Cc2ccc(CNCc3ccc(F)cc3)cc2)cc1)C(=O)NO)[N+](=O)[O-]` (stereo not shown) [Compound 284] displayed an MIC PM 12080 of at most 0.1 µg/mL.

The test system of the next assay is Mannheimia haemolytica MH 13065 (XB0446-6003.9, BRD field isolate). As to the kind of experiment: MIC, broth-microdilution (CLSI VET01-A4), strain MH 13065. The assay is classed as cell-based. As to conditions: Mannheimia haemolytica strain MH 13065, broth-microdilution; unit assumed. The method, boiled down:
as §1
Molecule `CON=C(C)[C@H](NC(=O)c1ccc(C#Cc2ccc(CNCC3CCCO3)cc2)cc1)C(=O)NO` (stereo partly shown) [Compound 394] had an MIC MH 13065 of 3.1 µg/mL (≈ 6.48 µM).

On to `C=CCNCc1ccc(C#Cc2ccc(C(=O)N[C@H](C(=O)NO)C(C)(C)SC)cc2)cc1` [C.236], for which the MIC MH 13065 worked out at 0.8 µg/mL (≈ 1.77 µM).

In turn, `COCCN(C)Cc1ccc(C#Cc2ccc(C(=O)N[C@@H](CO)C(=O)NO)cc2)cc1` [Compound 154] came in with an MIC MH 13065 of 6.3 µg/mL (≈ 14.8 µM).

As for `CC(C)(C(NC(=O)c1ccc(C#Cc2ccc(CNCc3ccc(F)cc3)cc2)cc1)C(=O)NO)[N+](=O)[O-]` (stereo not shown) [Compound 284], the MIC MH 13065 came to 0.2 µg/mL (≈ 0.386 µM).

The next assay has as its system Mannheimia haemolytica MH 13093 (XB0472-6014.1, BRD field isolate). The experiment in a line: MIC, broth-microdilution (CLSI VET01-A4), strain MH 13093. Conditions: Mannheimia haemolytica strain MH 13093, broth-microdilution; unit assumed. In kind it is cell-based. The method, boiled down: as §1
Regarding `CON=C(C)[C@H](NC(=O)c1ccc(C#Cc2ccc(CNCC3CCCO3)cc2)cc1)C(=O)NO` (stereo partly shown) [Compound 394], the MIC MH 13093 was 3.1 µg/mL (≈ 6.48 µM).

Molecule `C=CCNCc1ccc(C#Cc2ccc(C(=O)N[C@H](C(=O)NO)C(C)(C)SC)cc2)cc1` [C.236] came in with an MIC MH 13093 of 0.8 µg/mL (≈ 1.77 µM).

`COCCN(C)Cc1ccc(C#Cc2ccc(C(=O)N[C@@H](CO)C(=O)NO)cc2)cc1` [Compound 154] showed an MIC MH 13093 of 6.3 µg/mL (≈ 14.8 µM).

For `CC(C)(C(NC(=O)c1ccc(C#Cc2ccc(CNCc3ccc(F)cc3)cc2)cc1)C(=O)NO)[N+](=O)[O-]` (stereo not shown) [Compound 284], the MIC MH 13093 turned out to be 0.8 µg/mL (≈ 1.54 µM).

Another assay concerns Pasteurella multocida PM 10775 (080130003051, BRD field isolate). As to the kind of experiment: MIC, broth-microdilution (CLSI VET01-A4), strain PM 10775. In kind it is cell-based. Conditions: Pasteurella multocida strain PM 10775, broth-microdilution; unit assumed. The method, boiled down:
as §1
Turning to `CON=C(C)[C@H](NC(=O)c1ccc(C#Cc2ccc(CNCC3CCCO3)cc2)cc1)C(=O)NO` (stereo partly shown) [Compound 394], the MIC PM 10775 stood at 0.8 µg/mL (≈ 1.67 µM).

Molecule `C=CCNCc1ccc(C#Cc2ccc(C(=O)N[C@H](C(=O)NO)C(C)(C)SC)cc2)cc1` [C.236] yielded an MIC PM 10775 of at most 0.1 µg/mL.

For `COCCN(C)Cc1ccc(C#Cc2ccc(C(=O)N[C@@H](CO)C(=O)NO)cc2)cc1` [Compound 154], the MIC PM 10775 was at most 0.1 µg/mL.

`CC(C)(C(NC(=O)c1ccc(C#Cc2ccc(CNCc3ccc(F)cc3)cc2)cc1)C(=O)NO)[N+](=O)[O-]` (stereo not shown) [Compound 284] had an MIC PM 10775 of at most 0.1 µg/mL.

The next assay has as its system Pasteurella multocida PM 6267 (P 2225 (L386), reference strain, mouse infection strain). As to the kind of experiment: MIC, broth-microdilution (CLSI VET01-A4), strain PM 6267. The assay is classed as cell-based. Conditions: Pasteurella multocida strain PM 6267, broth-microdilution; unit assumed. The method, boiled down: as §1
In turn, `CON=C(C)[C@H](NC(=O)c1ccc(C#Cc2ccc(CNCC3CCCO3)cc2)cc1)C(=O)NO` (stereo partly shown) [Compound 394] displayed an MIC PM 6267 of 6.3 µg/mL (≈ 13.2 µM).

In turn, `C=CCNCc1ccc(C#Cc2ccc(C(=O)N[C@H](C(=O)NO)C(C)(C)SC)cc2)cc1` [C.236] returned an MIC PM 6267 of at most 0.1 µg/mL.

In turn, `COCCN(C)Cc1ccc(C#Cc2ccc(C(=O)N[C@@H](CO)C(=O)NO)cc2)cc1` [Compound 154] gave an MIC PM 6267 of 0.2 µg/mL (≈ 0.47 µM).

Molecule `CC(C)(C(NC(=O)c1ccc(C#Cc2ccc(CNCc3ccc(F)cc3)cc2)cc1)C(=O)NO)[N+](=O)[O-]` (stereo not shown) [Compound 284] yielded an MIC PM 6267 of 0.8 µg/mL (≈ 1.54 µM).

Another assay deals with Mannheimia haemolytica MH 6374 (ATCC 33396, reference strain). The experiment in a line: MIC, broth-microdilution (CLSI VET01-A4), strain MH 6374. In kind it is cell-based. Conditions: Mannheimia haemolytica strain MH 6374, broth-microdilution; unit assumed. The method, boiled down: as §1
The molecule `CON=C(C)[C@H](NC(=O)c1ccc(C#Cc2ccc(CNCC3CCCO3)cc2)cc1)C(=O)NO` (stereo partly shown) [Compound 394] yielded an MIC MH 6374 of 6.3 µg/mL (≈ 13.2 µM).

For the molecule `C=CCNCc1ccc(C#Cc2ccc(C(=O)N[C@H](C(=O)NO)C(C)(C)SC)cc2)cc1` [C.236], the MIC MH 6374 came to 0.8 µg/mL (≈ 1.77 µM).

Regarding `COCCN(C)Cc1ccc(C#Cc2ccc(C(=O)N[C@@H](CO)C(=O)NO)cc2)cc1` [Compound 154], the MIC MH 6374 was found to be 12.5 µg/mL (≈ 29.4 µM).

Turning to `CC(C)(C(NC(=O)c1ccc(C#Cc2ccc(CNCc3ccc(F)cc3)cc2)cc1)C(=O)NO)[N+](=O)[O-]` (stereo not shown) [Compound 284], the MIC MH 6374 amounted to 0.8 µg/mL (≈ 1.54 µM).

The test system of the next assay is Mannheimia haemolytica MH 12587 (1071, BRD field isolate, macrolide-resistance: erm+, E+). The experiment in a line: MIC, broth-microdilution (CLSI VET01-A4), strain MH 12587. The assay is classed as cell-based. Conditions: Mannheimia haemolytica strain MH 12587, broth-microdilution; unit assumed. The method, boiled down:
as §1
In turn, `CON=C(C)[C@H](NC(=O)c1ccc(C#Cc2ccc(CNCC3CCCO3)cc2)cc1)C(=O)NO` (stereo partly shown) [Compound 394] showed an MIC MH 12587 of 0.8 µg/mL (≈ 1.67 µM).

In turn, `C=CCNCc1ccc(C#Cc2ccc(C(=O)N[C@H](C(=O)NO)C(C)(C)SC)cc2)cc1` [C.236] yielded an MIC MH 12587 of 1.6 µg/mL (≈ 3.54 µM).

Molecule `COCCN(C)Cc1ccc(C#Cc2ccc(C(=O)N[C@@H](CO)C(=O)NO)cc2)cc1` [Compound 154] returned an MIC MH 12587 of 12.5 µg/mL (≈ 29.4 µM).

In turn, `CC(C)(C(NC(=O)c1ccc(C#Cc2ccc(CNCc3ccc(F)cc3)cc2)cc1)C(=O)NO)[N+](=O)[O-]` (stereo not shown) [Compound 284] gave an MIC MH 12587 of 1.6 µg/mL (≈ 3.09 µM).
